{
  "source": "patent US20160067347A1",
  "about": "“APJ RECEPTOR AGONISTS AND USES THEREOF” (AMGEN INC., priority 2012, published 2016)",
  "key": {"human APJ": {"biological_target": "T1, human APJ (Homo sapiens, UniProt P35414)", "T1 construct": "expressed in transfected cells", "T1 sequence (P35414 1-380)": "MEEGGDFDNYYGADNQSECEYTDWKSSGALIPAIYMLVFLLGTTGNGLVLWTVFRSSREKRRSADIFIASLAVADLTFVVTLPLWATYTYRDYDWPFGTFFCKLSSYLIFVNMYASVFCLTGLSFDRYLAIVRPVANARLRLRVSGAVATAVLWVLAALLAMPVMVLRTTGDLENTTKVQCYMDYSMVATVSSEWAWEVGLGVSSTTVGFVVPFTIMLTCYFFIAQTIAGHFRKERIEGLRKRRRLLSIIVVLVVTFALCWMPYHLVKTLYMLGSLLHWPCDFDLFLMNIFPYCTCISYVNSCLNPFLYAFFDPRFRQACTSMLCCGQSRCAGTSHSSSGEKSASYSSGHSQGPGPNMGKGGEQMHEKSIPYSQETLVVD", "assay": "cAMP assay, stable CHO cell line expressing human APJ", "assay_type": "cell-based", "settings": "FIG. 5; cAMP seen with either human or rat APJ stable cell lines", "method": "Stable CHO cell lines expressing APJ were used for cAMP assays. The cells were incubated with stimulation buffer containing HANK's buffer, forskolin and 0.5 mM IBMX in the absence or presence of various concentrations' of peptides at 37° C. for 45 min. The cAMP level was determined using a cyclic AMP kit (DiscoverX) according to the manufacturer's instructions."}, "[1]": {"system": "isolated Langendorff rat heart", "assay": "Langendorff isolated rat heart, hemodynamic cardiac function", "settings": "control rats, FIGS. 7 and 8", "text": "To assess the hemodynamic cardiac function of the peptides a Langendorff isolated heart system was used. The isolated heart from rat provides broad spectrum of measurements that can include biochemical, metabolic, morphological and physiological indices. The limitations/advantages of the method include absence of neurohormonal influences, neural regulation and high coronary flows. Such limitations, however, are offset by the ability to study direct cardiac effects without systemic circulation and a host of peripheral interactions.\nThe reproducibility and accuracy of measurements and relatively low costs over in vivo studies for profiling drugs outweigh any limitations of this method. Therefore, this method provides excellent dose-response relationship and sheds critical insight into the pharmacological and physiological properties of the molecules of interest.\nThe animals were anesthetized upon administration of 50-100 mg/kg dose of sodium pentobarbital for rat via the intraperitoneal route. The heart was excised and gently cradled between fingers to avoid injury followed by lifting slightly before incising the aorta, vena cava and pulmonary vessels Immediately after excision of the heart with aorta, the heart was mounted onto the cannula in the Langendorff apparatus via the aorta. The heart was perfused with modified oxygenated Krebs-Henseleit buffer pH7.5 and equilibrated with 95% O2/5% CO2 at 37° C. The perfusion was performed at a constant flow of 10 ml/min and paced at 300 bpm. The pressure was measured through a pressure sensing balloon catheter inserted in the LV cavity. The intrinsic inotropy (force of muscle contraction) and lusitropy (cardiac relaxation) effects of the heart were assessed by dp/dtmax and dp/dtmin.\nThese figures illustrate improvement in both systolic and diastolic function of normal hearts with peptides of SEQ ID NOs: 23 and 24."}, "rat APJ receptor": {"biological_target": "T2, rat APJ receptor (Rattus norvegicus, UniProt Q9JHG3)", "T2 construct": "expressed in transfected cells; CHO is named only for the cAMP assay", "T2 sequence (Q9JHG3 1-377)": "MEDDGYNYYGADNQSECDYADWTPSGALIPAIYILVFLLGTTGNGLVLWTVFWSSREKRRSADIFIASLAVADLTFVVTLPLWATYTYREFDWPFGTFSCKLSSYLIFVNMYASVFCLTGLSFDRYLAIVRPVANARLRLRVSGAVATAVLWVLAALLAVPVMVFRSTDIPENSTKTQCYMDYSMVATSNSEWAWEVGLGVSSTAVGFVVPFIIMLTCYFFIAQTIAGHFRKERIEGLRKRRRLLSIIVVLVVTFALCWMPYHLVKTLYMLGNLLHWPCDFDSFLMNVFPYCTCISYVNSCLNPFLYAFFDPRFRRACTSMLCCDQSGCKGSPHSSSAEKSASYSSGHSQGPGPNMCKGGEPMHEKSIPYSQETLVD", "assay": "[35S]GTPγS assay, membranes from stable cell lines, rat APJ", "assay_type": "biochemical", "settings": "FIG. 10; effect of PEG size (20 kDa vs 40 kDa)", "method": "To assay for GTP, membranes were prepared from stable cell lines and used to determine the efficacy/potency of the modified peptides. The optimal experimental conditions for the concentrations of GDP, MgCl2 and NaCl in the assay buffer were initially determined. The membranes were incubated with modified peptides in the assay buffer. The reaction was initiated by addition of [^35S] GTPγS in the absence or presence of peptides and incubated at room temperature for 90 min. […] Bound [^35S] GTPγS was separated from free radiolabel by filtration. The filter bound radioactivity was determined by liquid scintillation counting.\nA series of PEGylated peptides were prepared and screened in vitro to explore the effects of PEG size and peptide valency on potency and efficacy in the GTPγS assay. In the assay 20 kDA and 40 kDA PEG were compared (FIG. 10).\nAdditionally mono- and multivalent bis, and tetrakis-peptide conjugated PEGS were prepared to explore peptide valency. […]"}, "in vitro": {"assay": "in vitro", "settings": "rat, plasma", "description": "Apelin peptides were spiked into freshly prepared mouse, rat, dog and human EDTA plasma to a final concentration of 5 μM. The plasma samples were then incubated at 37° C. over a period of 4 hr. Up to 8 time points were sampled to facilitate estimation of in vitro half life in plasma matrices. In a typical experiment, aliquot of 100 μL of plasma sample was taken from the incubation vial, followed by addition of 300 μL of MeOH containing internal standard. The quenched sample was centrifuged at 5500 g for 15 min after 15 min vortex in room temperature. The supernatant was then analyzed by high resolution LC-MS."}, "FIGURE 4B": {"assay": "FIGURE 4B", "text": "Table printed on a drawing sheet, FIGURE 4B\nSection band inside the table: Peptides with triazole linker and 20 kDa PEG modification\nThe patent's description of the figure: FIGS. 4A-B. In vitro stability of APJ agonists in plasma.\nFirst reader's note: Rows 3 and 9 of the grid are section headings spanning all columns (linker type of the 20 kDa PEGylated peptides)."}, "APJ receptor": {"biological_target": "T3, APJ receptor (Rattus norvegicus, UniProt Q9JHG3)", "T3 construct": "expressed in transfected cells; CHO is named only for the cAMP assay", "T3 sequence (Q9JHG3 whole entry, looked up)": "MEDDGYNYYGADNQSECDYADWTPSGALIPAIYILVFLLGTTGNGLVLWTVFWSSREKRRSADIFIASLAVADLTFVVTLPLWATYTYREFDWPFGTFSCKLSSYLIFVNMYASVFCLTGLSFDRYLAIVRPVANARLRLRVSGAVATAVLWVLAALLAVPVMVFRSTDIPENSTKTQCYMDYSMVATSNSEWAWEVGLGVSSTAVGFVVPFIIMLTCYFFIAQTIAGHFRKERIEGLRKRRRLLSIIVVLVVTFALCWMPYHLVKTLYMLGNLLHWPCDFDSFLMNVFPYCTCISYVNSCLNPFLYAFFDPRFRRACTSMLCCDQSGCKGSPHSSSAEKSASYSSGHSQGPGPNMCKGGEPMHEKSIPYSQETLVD", "assay": "EC50", "text": "Table printed on a drawing sheet, FIGURE 11\nThe patent's description of the figure: FIG. 11. Effects of peptide valency on in vitro activity.\nFirst copying reader's note: The sheet prints no unit for the EC50 column; the plot under the table ([35S]GTPγS binding, rAPJ stable cell line) is not copied."}},
  "note": "Where no end group is shown, it is not given here. [ ]: non-standard residue; d: D form. Oic = O=C(O)[C@@H]1C[C@@H]2CCCC[C@@H]2N1; Phe(4-Cl) = N[C@@H](Cc1ccc(Cl)cc1)C(=O)O; hArg = N=C(N)NCCCC[C@H](N)C(=O)O; Cha = N[C@@H](CC1CCCCC1)C(=O)O; Nle = CCCC[C@H](N)C(=O)O",
  "data": [
    {"molecule": "3-(1-(2-(mPEG(20kDa))ethyl)-1H-1,2,3-triazol-4-yl)alanine-[hArg68;Cha69;Oic74;Nle75;4-Cl-F77]Apelin-17(61-77) [SEQ ID NO: 25]", "values": [
      {"measurement": "agonist activity relative to pyr apelin-13 (SEQ ID NO: 128)", "setting": "human APJ", "result": "potent and act as a full agonist"}
    ]},
    {"molecule": "3-((2-(3-(mPEG(20kDa))propylamino)-2-oxoethyl)thio)propanamide-[hArg68;Cha69;Oic74;Nle75;4-Cl-Phe77]Apelin-17(61-77) [SEQ ID NO: 24]", "values": [
      {"measurement": "dp/dtmax", "setting": "[1]", "result": "dose dependent increase"},
      {"measurement": "dp/dtmin", "setting": "[1]", "result": "decrease"},
      {"measurement": "systolic pressure", "setting": "[1]", "result": "increases"},
      {"measurement": "agonist activity relative to pyr apelin-13 (SEQ ID NO: 128)", "setting": "human APJ", "result": "potent and act as a full agonist"},
      {"measurement": "EC50", "setting": "rat APJ receptor", "result": 252, "unit": "pM"}
    ]},
    {"molecule": "CCCC[C@H](NC(=O)[C@@H]1C[C@@H]2CCCC[C@@H]2N1C(=O)CNC(=O)[C@H](CCCCN)NC(=O)[C@H](Cc1c[nH]cn1)NC(=O)[C@H](Cc1cn(CCOCCOCCOCCOCCOCCOCCOCCOCCOCCOCCN)nn1)NC(=O)[C@H](CC(C)C)N(C)C(=O)[C@H](CCCCNC(=N)N)NC(=O)[C@@H]1CCCN1C(=O)[C@H](CCCNC(=N)N)NC(=O)[C@@H]1CCC(=O)N1)C(=O)N[C@@H](Cc1ccc(Cl)cc1)C(=O)O", "note": "[compound 35]", "values": [
      {"measurement": "remaining at 1 h, 5 μM", "setting": "in vitro", "result": 82, "unit": "%"}
    ]},
    {"molecule": "CCCC[C@H](NC(=O)[C@@H]1C[C@@H]2CCCC[C@@H]2N1C(=O)CNC(=O)[C@H](CCCCN)NC(=O)[C@H](Cc1c[nH]cn1)NC(=O)[C@H](Cc1cn(CCOCCOCCOCCOCCOCCOCCOCCOCCOCCOCCN)nn1)NC(=O)[C@H](CC(C)C)N(C)C(=O)[C@H](CCCCNC(=N)N)NC(=O)[C@@H]1CCCN1C(=O)[C@H](CCCNC(=N)N)NC(=O)[C@@H]1CCC(=O)N1)C(=O)N1CCC[C@H]1C(=O)N[C@@H](Cc1ccc(Cl)cc1)C(=O)O", "note": "[compound 36]", "values": [
      {"measurement": "remaining at 1 h, 5 μM", "setting": "in vitro", "result": 88, "unit": "%"}
    ]},
    {"molecule": "Atz(20K-mPEG)- KFRRQRP[hArg][Cha]SHKG[Oic][Nle]P[4-Cl-F] [compound 49]", "values": [
      {"measurement": "in vitro plasma stability (t1/2, min) | HUMAN", "setting": "FIGURE 4B", "result": 176, "unit": "min"},
      {"measurement": "in vitro plasma stability (t1/2, min) | MOUSE", "setting": "FIGURE 4B", "result": 55, "unit": "min"},
      {"measurement": "in vitro plasma stability (t1/2, min) | RAT", "setting": "FIGURE 4B", "result": 193, "unit": "min"}
    ]},
    {"molecule": "Atz(20K-mPEG)-LRP[hArg][Cha]SHKG[Oic][Nle]P[4-Cl-F] [compound 50]", "values": [
      {"measurement": "in vitro plasma stability (t1/2, min) | HUMAN", "setting": "FIGURE 4B", "result": 264, "unit": "min"},
      {"measurement": "in vitro plasma stability (t1/2, min) | MOUSE", "setting": "FIGURE 4B", "result": 64, "unit": "min"},
      {"measurement": "in vitro plasma stability (t1/2, min) | RAT", "setting": "FIGURE 4B", "result": 256, "unit": "min"}
    ]},
    {"molecule": "SEQ ID NO: 130: 20 kDa PEG-bis(Atz-KFRRQRP[hArg][Cha]SHKG[Oic][Nle]P[4-Cl—F]) (KFRRQRP[hArg][Cha]SHKG[Oic][Nle]P[Phe(4-Cl)]; not fully specified (N-terminus); also: 20 kDa PEG carries two peptide copies)", "values": [
      {"measurement": "EC50", "setting": "APJ receptor", "result": 407, "unit": "pM"}
    ]}
  ]
}
